Test results from paper PMC6222927, “Aminobenzosuberone Scaffold as a Modular Chemical Tool for the Inhibition of Therapeutically Relevant M1 Aminopeptidases” (Molecules : A Journal of Synthetic Chemistry and Natural …, 2018).
Where two headings read alike, the source gives them in different places.

Tests used:
[1] = target: human arginyl aminopeptidase B (HsAPB); details: cited from earlier work
[2] = target: mammalian aminopeptidase N (mAPN); details: cited from earlier work
[3] = target: human endoplasmic reticulum aminopeptidase 1 (HsERAP1); details: ref 41; cited from earlier work
[4] = target: human puromycine sensitive aminopeptidase (HsPSA); details: ref 37; cited from earlier work
[5] = system: E. coli (EcPepN) M1 aminopeptidase; details: ref 43; cited from earlier work
[6] = target: P. falciparum (PfAM1) M1 aminopeptidase; details: ref 44; cited from earlier work
[7] = target: bimetallic aminopeptidase from A. proteolytica (AAP); set-up: method as in PMID 21292493; details: ref 42; cited from earlier work
[8] = target: mammalian cytosolic leucine aminopeptidase (mLAPc); details: cited from earlier work
[9] = target: P. falciparum M17 aminopeptidase (PfAM17); details: ref 45; cited from earlier work
E. coli rEcPepN = E. coli rEcPepN (Escherichia coli, UniProt P04825); assay: rEcPepN inhibition, Leu-pNA substrate, Dixon method; format: biochemical
Sequence of E. coli rEcPepN (P04825 whole entry): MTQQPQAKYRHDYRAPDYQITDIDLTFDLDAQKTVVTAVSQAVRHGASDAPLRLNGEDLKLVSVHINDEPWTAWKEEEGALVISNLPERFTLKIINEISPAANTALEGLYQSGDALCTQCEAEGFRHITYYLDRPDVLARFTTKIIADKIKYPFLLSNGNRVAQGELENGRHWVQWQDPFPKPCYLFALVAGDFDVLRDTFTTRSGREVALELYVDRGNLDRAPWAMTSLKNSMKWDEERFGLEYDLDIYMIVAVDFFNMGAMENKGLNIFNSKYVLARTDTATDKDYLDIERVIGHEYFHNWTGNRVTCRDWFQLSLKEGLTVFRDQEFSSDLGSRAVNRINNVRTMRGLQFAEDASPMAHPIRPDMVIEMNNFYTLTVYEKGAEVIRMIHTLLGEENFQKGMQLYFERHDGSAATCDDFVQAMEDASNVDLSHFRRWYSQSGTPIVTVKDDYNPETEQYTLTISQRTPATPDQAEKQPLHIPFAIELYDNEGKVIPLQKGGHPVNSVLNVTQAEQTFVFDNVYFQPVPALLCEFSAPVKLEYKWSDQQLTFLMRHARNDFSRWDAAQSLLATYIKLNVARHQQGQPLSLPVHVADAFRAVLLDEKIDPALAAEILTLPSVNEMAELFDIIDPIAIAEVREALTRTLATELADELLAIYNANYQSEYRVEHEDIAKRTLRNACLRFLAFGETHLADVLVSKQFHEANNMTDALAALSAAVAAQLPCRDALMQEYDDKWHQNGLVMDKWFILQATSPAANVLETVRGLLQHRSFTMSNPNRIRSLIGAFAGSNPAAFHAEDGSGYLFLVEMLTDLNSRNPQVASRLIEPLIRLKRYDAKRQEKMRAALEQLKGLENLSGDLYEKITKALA
Procedure: Enzyme activity assays were carried out in 10 mM Tris-HCl buffer at pH 7.5 with 150 mM NaCl, enzyme, 100 µM substrate (Leu-pNA) in a 100 μL reaction at 37 °C. The absorbance was read at 405 nm. Concentrations ranging from 1 nM to 100 μM of inhibitors (dissolved in DMSO) were incubated with each of the enzymes ([…]) for 30 min at 37 °C in a 96 well plate. After addition of the substrate, immediate increase in absorption was measured. All inhibition assays were performed in triplicates and initial velocities were measured. Percentage inhibition and log values of inhibitor concentrations were plotted using SigmaPlot to determine IC50 values. Ki values were determined by the Dixon method. The assay consists of reaction buffer, enzyme and varied concentrations of Leu-pNA (25, 50, 100, 200 and 400 µM). […] Data were plotted as 1/rate versus inhibitor concentration for each substrate concentration and a linear fit was calculated by non-linear regression using SigmaPlot12.5. All the reactions were performed in triplicates, SD values were reported.

[10] = target: T1, human endoplasmic reticulum aminopeptidase 1 (rHsERAP1) (Homo sapiens, UniProt Q9NZ08); assay: rHsERAP1 inhibition, L-AMC fluorigenic substrate; format: biochemical; details: 50 µM L-AMC
T1 construct: made in house; host or cells: Hi5 insect cells (baculovirus produced in sf9)
T1 sequence (Q9NZ08 whole entry): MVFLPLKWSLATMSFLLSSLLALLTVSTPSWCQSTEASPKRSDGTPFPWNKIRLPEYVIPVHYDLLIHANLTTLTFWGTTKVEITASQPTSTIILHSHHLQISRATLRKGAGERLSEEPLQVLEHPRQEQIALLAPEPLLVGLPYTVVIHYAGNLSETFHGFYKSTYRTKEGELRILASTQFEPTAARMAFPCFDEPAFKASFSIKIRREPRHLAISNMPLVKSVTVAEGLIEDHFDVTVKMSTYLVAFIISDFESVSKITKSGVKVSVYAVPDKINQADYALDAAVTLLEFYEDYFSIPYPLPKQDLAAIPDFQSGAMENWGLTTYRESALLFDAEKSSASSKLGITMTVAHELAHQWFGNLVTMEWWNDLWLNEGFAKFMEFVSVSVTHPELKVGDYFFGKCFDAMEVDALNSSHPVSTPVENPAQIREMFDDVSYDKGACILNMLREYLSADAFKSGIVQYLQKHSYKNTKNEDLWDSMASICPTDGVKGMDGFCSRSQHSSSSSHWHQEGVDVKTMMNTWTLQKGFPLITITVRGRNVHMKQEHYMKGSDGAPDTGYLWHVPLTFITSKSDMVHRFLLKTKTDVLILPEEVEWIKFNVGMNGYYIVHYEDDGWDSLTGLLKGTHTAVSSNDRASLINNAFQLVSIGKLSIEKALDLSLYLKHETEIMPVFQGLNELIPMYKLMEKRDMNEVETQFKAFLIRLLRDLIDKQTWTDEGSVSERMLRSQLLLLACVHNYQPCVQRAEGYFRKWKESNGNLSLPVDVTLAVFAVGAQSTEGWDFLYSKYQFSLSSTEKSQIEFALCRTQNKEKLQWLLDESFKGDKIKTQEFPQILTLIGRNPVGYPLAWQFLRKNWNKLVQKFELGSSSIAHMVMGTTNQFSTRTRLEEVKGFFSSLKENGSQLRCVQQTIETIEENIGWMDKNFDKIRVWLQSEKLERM
Procedure: (§1) The enzymatic activity of HsERAP1, HsERAP2 and HsIRAP was determined by following the time-dependent increase in fluorescence at 460 nm (excitation: 380 nm) of the fluorigenic substrates L-Leucine-7-amido-4-methyl coumarin (L-AMC; Sigma, Darmstatd, Germany) for HsERAP1 and HsIRAP and L-arginyl-7-amido-4-methyl coumarin (R-AMC; Sigma) for HsERAP2. […] The reaction was followed for 10 min at room temperature and the remaining enzymatic activity was calculated by measuring the slope of the time course.

[11] = target: T2, human endoplasmic reticulum aminopeptidase 2 (rHsERAP2) (Homo sapiens, UniProt Q6P179); assay: rHsERAP2 inhibition, R-AMC fluorigenic substrate; format: biochemical; details: 50 µM R-AMC
T2 construct: made in house; host or cells: Hi5 insect cells (baculovirus produced in sf9)
T2 sequence (Q6P179 whole entry): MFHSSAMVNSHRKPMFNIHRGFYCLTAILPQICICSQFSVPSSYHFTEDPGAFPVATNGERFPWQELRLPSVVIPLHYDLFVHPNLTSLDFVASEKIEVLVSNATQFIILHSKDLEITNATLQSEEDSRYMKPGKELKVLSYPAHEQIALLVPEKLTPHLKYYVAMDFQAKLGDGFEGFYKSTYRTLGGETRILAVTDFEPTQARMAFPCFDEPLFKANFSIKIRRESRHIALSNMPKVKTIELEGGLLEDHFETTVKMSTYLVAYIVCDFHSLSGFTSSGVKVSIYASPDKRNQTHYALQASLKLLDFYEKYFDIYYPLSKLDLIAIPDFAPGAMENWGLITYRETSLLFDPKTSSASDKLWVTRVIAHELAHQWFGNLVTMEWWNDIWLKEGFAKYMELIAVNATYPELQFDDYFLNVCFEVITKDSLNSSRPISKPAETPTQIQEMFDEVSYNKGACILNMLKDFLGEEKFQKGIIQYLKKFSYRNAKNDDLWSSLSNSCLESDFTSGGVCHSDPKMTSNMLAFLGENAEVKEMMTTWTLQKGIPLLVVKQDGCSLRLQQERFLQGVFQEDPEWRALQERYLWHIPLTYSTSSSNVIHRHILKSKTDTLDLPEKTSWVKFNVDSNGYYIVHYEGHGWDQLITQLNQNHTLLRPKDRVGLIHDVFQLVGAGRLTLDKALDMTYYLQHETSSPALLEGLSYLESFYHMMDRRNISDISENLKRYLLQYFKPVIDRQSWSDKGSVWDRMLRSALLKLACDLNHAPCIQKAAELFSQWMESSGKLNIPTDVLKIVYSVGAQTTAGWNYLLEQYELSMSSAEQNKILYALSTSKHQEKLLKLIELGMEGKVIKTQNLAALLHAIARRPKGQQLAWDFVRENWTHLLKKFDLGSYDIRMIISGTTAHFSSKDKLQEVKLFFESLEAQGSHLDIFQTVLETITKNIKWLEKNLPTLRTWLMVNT
Procedure: as §1

[12] = target: human puromycine sensitive aminopeptidase (rHsPSA) (Homo sapiens, UniProt P55786); assay: rHsPSA inhibition, Leu-pNA substrate, Dixon method; format: biochemical; details: triplicate, SD
Sequence of human puromycine sensitive aminopeptidase (rHsPSA) (P55786 whole entry): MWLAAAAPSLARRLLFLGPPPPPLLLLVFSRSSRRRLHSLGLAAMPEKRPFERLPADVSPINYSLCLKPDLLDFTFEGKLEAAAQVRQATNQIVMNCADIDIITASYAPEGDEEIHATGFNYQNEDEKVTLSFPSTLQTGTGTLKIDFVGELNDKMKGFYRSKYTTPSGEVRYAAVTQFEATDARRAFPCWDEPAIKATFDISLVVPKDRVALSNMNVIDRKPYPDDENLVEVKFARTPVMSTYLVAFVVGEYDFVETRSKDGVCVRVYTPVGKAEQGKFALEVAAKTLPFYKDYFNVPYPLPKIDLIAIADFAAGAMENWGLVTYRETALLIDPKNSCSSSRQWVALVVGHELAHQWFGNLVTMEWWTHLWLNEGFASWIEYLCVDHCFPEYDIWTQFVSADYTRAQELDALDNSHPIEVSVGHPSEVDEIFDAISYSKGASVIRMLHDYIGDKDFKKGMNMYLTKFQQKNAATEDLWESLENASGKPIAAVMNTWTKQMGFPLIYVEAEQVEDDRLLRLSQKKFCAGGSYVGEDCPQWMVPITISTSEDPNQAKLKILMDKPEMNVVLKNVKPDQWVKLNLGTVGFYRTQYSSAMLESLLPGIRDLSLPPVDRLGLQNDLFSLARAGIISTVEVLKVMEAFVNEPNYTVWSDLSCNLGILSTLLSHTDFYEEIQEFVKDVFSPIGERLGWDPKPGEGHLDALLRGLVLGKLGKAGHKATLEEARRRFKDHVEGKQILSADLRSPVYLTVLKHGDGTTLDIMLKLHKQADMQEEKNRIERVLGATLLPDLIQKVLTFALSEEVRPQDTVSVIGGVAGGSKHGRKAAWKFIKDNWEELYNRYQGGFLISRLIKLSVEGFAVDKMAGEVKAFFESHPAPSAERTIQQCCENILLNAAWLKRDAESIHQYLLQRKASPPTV
Procedure: Enzyme activity assays were carried out in 10 mM Tris-HCl buffer at pH 7.5 with 150 mM NaCl, enzyme, 100 µM substrate (Leu-pNA) in a 100 μL reaction at 37 °C. The absorbance was read at 405 nm. Concentrations ranging from 1 nM to 100 μM of inhibitors (dissolved in DMSO) were incubated with each of the enzymes ([…]) for 30 min at 37 °C in a 96 well plate. After addition of the substrate, immediate increase in absorption was measured. All inhibition assays were performed in triplicates and initial velocities were measured. Percentage inhibition and log values of inhibitor concentrations were plotted using SigmaPlot to determine IC50 values. Ki values were determined by the Dixon method. The assay consists of reaction buffer, enzyme and varied concentrations of Leu-pNA (25, 50, 100, 200 and 400 µM). […]. All the reactions were performed in triplicates, SD values were reported.

pAPN from porcine kidney = details: Dixon plots; cited from earlier work
P. falciparum rPfAM1 = target: T3, P. falciparum rPfAM1 (Plasmodium falciparum, UniProt O96935); set-up: method as in PMID 28934959; details: read-out: Ki rPfAM1; cited from earlier work
T3 construct: made in house; host or cells: Escherichia coli Rosetta 2 (DE3)
T3 sequence (O96935 1-1085): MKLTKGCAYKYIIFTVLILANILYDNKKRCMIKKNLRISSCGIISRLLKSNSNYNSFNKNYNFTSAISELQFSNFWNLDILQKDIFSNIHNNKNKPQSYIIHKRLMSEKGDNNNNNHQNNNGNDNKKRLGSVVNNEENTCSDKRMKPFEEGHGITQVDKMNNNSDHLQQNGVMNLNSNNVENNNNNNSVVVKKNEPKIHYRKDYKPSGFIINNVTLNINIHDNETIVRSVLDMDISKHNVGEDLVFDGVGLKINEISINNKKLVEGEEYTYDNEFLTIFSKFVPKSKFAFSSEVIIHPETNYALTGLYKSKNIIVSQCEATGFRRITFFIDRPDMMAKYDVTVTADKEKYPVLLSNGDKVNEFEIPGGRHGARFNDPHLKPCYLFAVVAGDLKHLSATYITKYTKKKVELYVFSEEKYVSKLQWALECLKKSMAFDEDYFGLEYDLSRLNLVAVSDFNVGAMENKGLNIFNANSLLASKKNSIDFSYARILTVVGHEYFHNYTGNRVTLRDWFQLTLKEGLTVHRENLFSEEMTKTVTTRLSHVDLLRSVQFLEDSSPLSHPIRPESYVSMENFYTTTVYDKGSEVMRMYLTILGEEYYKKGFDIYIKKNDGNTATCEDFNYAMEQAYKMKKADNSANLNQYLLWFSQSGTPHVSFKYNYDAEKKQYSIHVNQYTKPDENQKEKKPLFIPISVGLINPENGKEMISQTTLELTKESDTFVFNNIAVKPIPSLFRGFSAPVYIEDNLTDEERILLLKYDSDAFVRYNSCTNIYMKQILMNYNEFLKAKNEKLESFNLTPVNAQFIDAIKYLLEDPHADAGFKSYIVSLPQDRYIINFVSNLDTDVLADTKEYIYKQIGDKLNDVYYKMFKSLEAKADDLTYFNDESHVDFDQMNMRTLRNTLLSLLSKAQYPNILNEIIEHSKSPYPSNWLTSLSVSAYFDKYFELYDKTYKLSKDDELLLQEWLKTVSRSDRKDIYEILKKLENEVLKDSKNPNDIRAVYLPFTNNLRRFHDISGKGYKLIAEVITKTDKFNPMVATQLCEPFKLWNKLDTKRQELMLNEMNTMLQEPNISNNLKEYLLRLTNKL

[13] = target: human leukotriene A4 hydrolase (rHsLTA4H); set-up: method as in PMID 21843945; details: ref 58; cited from earlier work
P. falciparum rPfAM17 = target: T4, P. falciparum rPfAM17 (Plasmodium falciparum, UniProt Q8IL11); set-up: method as in PMID 28934959; details: ref 69; cited from earlier work
T4 construct: made in house; host or cells: Escherichia coli Rosetta 2 (DE3)
T4 sequence (Q8IL11 1-605): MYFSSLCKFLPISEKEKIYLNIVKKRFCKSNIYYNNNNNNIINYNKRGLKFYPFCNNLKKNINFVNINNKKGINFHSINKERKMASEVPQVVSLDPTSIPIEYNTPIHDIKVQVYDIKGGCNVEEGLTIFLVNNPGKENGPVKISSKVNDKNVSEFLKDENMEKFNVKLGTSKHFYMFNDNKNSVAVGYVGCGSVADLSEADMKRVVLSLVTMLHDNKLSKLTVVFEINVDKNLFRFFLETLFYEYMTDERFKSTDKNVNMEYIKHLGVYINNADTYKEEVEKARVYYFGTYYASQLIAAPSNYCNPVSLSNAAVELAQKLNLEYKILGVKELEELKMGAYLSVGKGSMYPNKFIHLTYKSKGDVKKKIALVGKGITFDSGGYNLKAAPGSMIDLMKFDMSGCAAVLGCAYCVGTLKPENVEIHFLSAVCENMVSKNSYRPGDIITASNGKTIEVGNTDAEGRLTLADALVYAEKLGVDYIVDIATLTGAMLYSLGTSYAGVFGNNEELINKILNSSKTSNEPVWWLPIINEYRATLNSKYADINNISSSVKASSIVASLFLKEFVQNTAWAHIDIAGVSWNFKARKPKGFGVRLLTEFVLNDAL

[14] = target: aminopeptidase from A. proteolytica (AAP); set-up: method as in PMID 21843945; details: ref 58; cited from earlier work
[15] = Octanol/water partition coefficient (logD7.4) by reversed-phase HPLC; details: pH 7.4
Procedure: The flow was 0.9 mL/min. The aminobenzosuberone derivatives were dissolved at 0.4 µM in methanol. The standards were also dissolved in methanol. Column void volume was estimated from the retention time of uracil, which was included as a non-retained internal reference with each injection.

[16] = target: human Leucyl-cystinyl aminopeptidase (HsIRAP); details: ref 48; cited from earlier work

For CC(C)C[C@H](NC(=O)[C@@H](O)[C@H](N)Cc1ccccc1)C(=O)O [compound 1, Bestatin], which Ki ([1]; ref 38) is on record?
The Ki was 6000 nM.

And the Ki ([1]; ref 39)?
Its Ki is 14 nM.

And the IC50 ([2]; ref 37)?
The IC50 was 300 nM.

And the Ki ([2]; ref 40)?
The Ki was 89000 nM.

And the Ki [3]?
Its Ki is 11200 nM.

What about the IC50 [4] of the same compound?
The IC50 was 350 nM.

What about the IC50 [5] of the same compound?
Its IC50 is 7300 nM.

What about the Ki [6] of the same compound?
The Ki was 190 nM.

And the Ki [7]?
The Ki was 1.6 nM.

And the Ki ([8]; ref 38)?
Its Ki is 0.6 nM.

What about the Ki ([8]; ref 39) of the same compound?
Its Ki is 20 nM.

And the Ki [9]?
Its Ki is 25 nM.

Which results are given for NC1CCc2cccc(-c3ccccc3)c2CC1=O (centres unmarked) [21c]?
Ki (E. coli rEcPepN): 160 ± 12 nM; IC50 [10]: 63000 ± 3000 nM; IC50 [11]: 18000 ± 1300 nM; Ki [12]: 50 ± 4 nM; Ki (pAPN from porcine kidney): 7 nM; Ki (P. falciparum rPfAM1): 50 ± 5 nM; Ki [13]: 19000 nM; Ki (P. falciparum rPfAM17): > 100000 nM; Ki [14]: 28000 nM; chromatographic logD [15]: 2.12

For C#CC[C@H](CP(=O)(O)[C@@H](N)CCc1ccccc1)C(=O)N[C@@H](Cc1ccccc1)C(N)=O [compound 3], which IC50 [16] is on record?
The IC50 was 2 nM.
